Reference: ChEMBL document CHEMBL1255475, “Mutant prevention concentrations of four carbapenems against gram-negative rods” (2010)
≈ marks a conversion by molar mass, not a printed value.

Experiments:
[1] = system: Pseudomonas aeruginosa; experiment: Ratio of mutant prevention concentration to minimum Inhibitory concentration for Pseudomonas aeruginosa P319; format: functional
[2] = system: Klebsiella pneumoniae; experiment: Antibacterial activity against beta-lactamase-negative Klebsiella pneumoniae E357 after 24 hrs by agar dilution method; format: functional; conditions: E357, 24 h
[3] = system: Escherichia coli; experiment: Antibacterial activity against beta-lactamase-positive ESBL-negative Escherichia coli E483 after 24 hrs by agar dilution method; conditions: E483, 24 h

Structure (SMILES) | Ratio [1] | MIC [2] [µg/mL] | MIC [3] [µg/mL]
C[C@@H](O)[C@H]1C(=O)N2C(C(=O)O)=C(S[C@@H]3CN[C@H](CNS(N)(=O)=O)C3)[C@H](C)[C@H]12 [DORIPENEM] | 4 |  | 
C[C@@H](O)[C@H]1C(=O)N2C(C(=O)O)=C(SCCNC=N)C[C@H]12 [IMIPENEM ANHYDROUS] |  | 0.25 (≈ 0.835 µM) | 1 (≈ 3.34 µM)
